In patent US20250319107A1, “USE OF CANNABIDIOL AND CLOBAZAM IN THE TREATMENT OF CHILDHOOD-ONSET EPILEPSY SYNDROMES” (GW Research Limited, priority 2021, published 2025):

Tests used:
[1] = test system: patients with LGS or DS; test: Phase 3 randomized controlled trials of CBD versus placebo, adverse reactions in DS and LGS patients; assay type: in vivo, human; details: for Pneumonia (grouped terms), adverse reaction incidence / Pyrexia, adverse reaction incidence / Rash, adverse reaction incidence / Somnolence (grouped: somnolence, sedation), adverse reaction incidence / Weight decreased, adverse reaction incidence / Abnormal behavior, adverse reaction incidence / Aggression, adverse reaction incidence / Agitation, adverse reaction incidence / Alanine aminotransferase increased, adverse reaction incidence / Aspartate aminotransferase increased, adverse reaction incidence / Decreased appetite, adverse reaction incidence / Diarrhea, adverse reaction incidence / Drooling, adverse reaction incidence / Fatigue, adverse reaction incidence / Gamma-glutamyl transferase increased, adverse reaction incidence / Insomnia, adverse reaction incidence / Irritability, adverse reaction incidence / Lethargy, adverse reaction incidence / Liver function test increased, adverse reaction incidence: DS and LGS, 14-week treatment; for Subjects with pneumonia, %: LGS and DS; for Pneumonia incidence: controlled trials
Description: (§1) Randomized, double-blind, parallel-group, trials of CBD versus placebo were undertaken and the adverse event experienced by the patients were collated and investigated.
(§2) In summary patients completed a 1-week screening period and a 4-week baseline period before they were randomized to receive CBD or equivalent volumes of placebo. Randomization was stratified by age.
(§3) Patients began a 4-week dose escalation period, titrating up to their assigned dose, before continuing on a stable dose of blinded investigational medicinal product (IMP) for 12 or 14 weeks.
Dose escalation for each patient was subject to the investigator's assessment of safety and tolerability. If a dose became poorly tolerated, the investigator may consider temporarily or permanently reducing the dose for the remainder of the study.
Clinic visits occurred for screening (Day-35), baseline (Day-28), randomization (Day 1) and, on Days 15 and 29 during titration and on Days 43, 57, 71 (telephone) and 85 until the end of treatment (Day 113). Safety telephone calls were completed every two days during titration, one week after the end of titration and, for patients not entering the open label extension (OLE), weekly from Visit 10 to Visit 12.
(§4) Safety and tolerability measures that were recorded included: adverse events; clinical laboratory parameters; 12-lead electrocardiogram (ECG); physical examination parameters (including height and weight); vital signs; Columbia-Suicide Severity Rating Scale (C-SSRS; 19+ years) or C-SSRS Children's (6-18 years) score, where applicable; number of inpatient hospitalizations due to epilepsy; abuse liability and effects on menstruation cycles (in females).
Table 1.1 below lists the adverse reactions that were reported in DS and LGS patients treated with CBD during the 14-week treatment period in the Phase 3 controlled trials.

[2] = test system: adult patients; details: 200 mg/day of pure CBD; four adult patients; cited from earlier work
[3] = test system: patients with LGS, DS, or TSC; test: Double-blind placebo-controlled trials across LGS, DS and TSC, overall statements; assay type: in vivo, human
Description: as §1, §2, §3, §4

[4] = test system: mice; details: after administration of pro-convulsant drugs or an electric current; cited from earlier work
[5] = All active (n = 456, includes 10 patients at 5 mg/kg/day)

For `C=C(C)[C@@H]1CCC(C)=C[C@H]1c1c(O)cc(CCCCC)cc1O` [CBD, cannabidiol], the “Pneumonia (grouped terms), adverse reaction incidence” value (“Pneumonia (grouped terms)” below) ([1]; 10 mg/kg/day (n = 139)) was 9%, the “Pyrexia, adverse reaction incidence” value ([1]; 10 mg/kg/day (n = 139)) was 17% and the “Rash, adverse reaction incidence” value ([1]; 10 mg/kg/day (n = 139)) was 2%. The “Somnolence (grouped: somnolence, sedation), adverse reaction incidence” value (“Somnolence” for short) ([1]; 10 mg/kg/day (n = 139)) was 26%, the “Weight decreased, adverse reaction incidence” value (shortened to “Weight decreased”) ([1]; 10 mg/kg/day (n = 139)) was 1% and the “Abnormal behavior, adverse reaction incidence” value ([1]; 20 mg/kg/day (n = 307)) was 3%. The “Aggression, adverse reaction incidence” value ([1]; 20 mg/kg/day (n = 307)) was 5%, the “Agitation, adverse reaction incidence” value ([1]; 20 mg/kg/day (n = 307)) was 1% and the “Alanine aminotransferase increased, adverse reaction incidence” value ([1]; 20 mg/kg/day (n = 307)) was 7%. For the same molecule, the “Aspartate aminotransferase increased, adverse reaction incidence” value ([1]; 20 mg/kg/day (n = 307)) was 7%, the “Decreased appetite, adverse reaction incidence” value ([1]; 20 mg/kg/day (n = 307)) was 24% and the “Diarrhea, adverse reaction incidence” value ([1]; 20 mg/kg/day (n = 307)) was 21%. The “Drooling, adverse reaction incidence” value ([1]; 20 mg/kg/day (n = 307)) was 3%, the “Fatigue, adverse reaction incidence” value ([1]; 20 mg/kg/day (n = 307)) was 13% and the “Gamma-glutamyl transferase increased, adverse reaction incidence” value ([1]; 20 mg/kg/day (n = 307)) was 5%. For the same molecule, the “Insomnia, adverse reaction incidence” value ([1]; 20 mg/kg/day (n = 307)) was 3%, the “Irritability, adverse reaction incidence” value ([1]; 20 mg/kg/day (n = 307)) was 5% and the “Lethargy, adverse reaction incidence” value ([1]; 20 mg/kg/day (n = 307)) was 6%. The “Liver function test increased, adverse reaction incidence” value ([1]; 20 mg/kg/day (n = 307)) was 3%, the “Pneumonia (grouped terms)” value ([1]; 20 mg/kg/day (n = 307)) was 5% and the “Pyrexia, adverse reaction incidence” value ([1]; 20 mg/kg/day (n = 307)) was 15%. The “Rash, adverse reaction incidence” value ([1]; 20 mg/kg/day (n = 307)) was 5%, the “Somnolence” value ([1]; 20 mg/kg/day (n = 307)) was 29% and the “Weight decreased” value ([1]; 20 mg/kg/day (n = 307)) was 4%. For the same molecule, the “Abnormal behavior, adverse reaction incidence” value [1, 5] was 2%, the “Aggression, adverse reaction incidence” value [1, 5] was 4% and the “Agitation, adverse reaction incidence” value [1, 5] was 1%. The “Alanine aminotransferase increased, adverse reaction incidence” value [1, 5] was 6%, the “Aspartate aminotransferase increased, adverse reaction incidence” value [1, 5] was 6% and the “Decreased appetite, adverse reaction incidence” value [1, 5] was 21%. The “Diarrhea, adverse reaction incidence” value [1, 5] was 18%, the “Drooling, adverse reaction incidence” value [1, 5] was 2% and the “Fatigue, adverse reaction incidence” value [1, 5] was 11%. For the same molecule, the “Gamma-glutamyl transferase increased, adverse reaction incidence” value [1, 5] was 4%, the “Insomnia, adverse reaction incidence” value [1, 5] was 3% and the “Irritability, adverse reaction incidence” value [1, 5] was 6%. For the same molecule, the “Lethargy, adverse reaction incidence” value [1, 5] was 5%, the “Liver function test increased, adverse reaction incidence” value [1, 5] was 2% and the “Pneumonia (grouped terms)” value [1, 5] was 6%. The “Pyrexia, adverse reaction incidence” value [1, 5] was 16%, the “Rash, adverse reaction incidence” value [1, 5] was 4% and the “Somnolence” value [1, 5] was 29%. The “Weight decreased” value [1, 5] was 3%, the “Subjects with pneumonia, %” value ([1]; With CLB, 10 mg/kg/day, N1 = 85) was 14.1% and the “Subjects with pneumonia, %” value ([1]; With CLB, 20 mg/kg/day, N1 = 167) was 7.2%. For the same molecule, the “Subjects with pneumonia, %” value ([1]; Without CLB, 20 mg/kg/day, N2 = 140) was 2.9%, the “Patients who developed a new laboratory-defined anaemia during the study” value ([1]; patients with LGS and DS, normal haemoglobin at baseline, later below lower limit of normal) was 27% and the “Discontinuation incidence for transaminase elevation” value ([1]; patients with LGS or DS) was “dose responsive”. For the same molecule, the Pneumonia incidence ([1]; with clobazam, 10 mg/kg/day CBD) was 14%, the Pneumonia incidence ([1]; with clobazam, 20 mg/kg/day CBD) was 7% and the Pneumonia incidence ([1]; without concomitant clobazam, 10 mg/kg/day CBD) was 0%. For the same molecule, the Pneumonia incidence ([1]; without concomitant clobazam, 20 mg/kg/day CBD) was 3%, the “Patients who became seizure free” value [2] was “two of the four” and the “Seizure frequency versus placebo” value ([3]; CBD alone or in combination with clobazam, across all treatment groups) was “significant reduction”. For the same molecule, the Decrease in weight ([3]; patients with LGS, DS, or TSC) was “dose related”, the “Incidence of pneumonia in patients concurrently taking clobazam in addition to CBD” value ([3]; versus patients not taking clobazam, LGS, DS and TSC) was “significantly higher” and the Prevention of seizures [4] was “able to prevent seizures”.
